Experimental findings from a melting point compilation (Tetko et al.; mined from patent text by program, amines drawn as free bases though some values may be those of a salt) are described below.

The structures appear in SMILES notation.

With `Cc1c(Cc2ccc(Cl)cc2)c(=O)oc2cc(O)cc(O)c12`, the melting point fell in the range of 270 to 278 °C.

`CC1(C)Oc2ccc(C(N)=O)cc2C(c2cccn(Cc3ccccc3)c2=O)C1O` (stereo not drawn) yielded a melting point of 230 to 235 °C.

As to `Cc1nc(-c2ccc(NC(=O)CCCC(=O)Nc3ccc(-c4noc(C)n4)cc3)cc2)no1`, the melting point was 235 to 237 °C.

`O=C(O)c1ccc(O)c(Cl)c1Cl` yielded a melting point of 200 °C.

Regarding `COC(=O)C1=C(C)Nc2c(c(=O)n(C)c(=O)n2C)C1c1cccc([N+](=O)[O-])c1` (stereo not drawn), the melting point is more than 230 °C.

`O=C(CCc1nc(-c2ccccn2)no1)NC1CCN(Cc2ccc(F)c(Cl)c2)CC1` gave a melting point of 150 °C.

`COc1ccc(NC(=O)c2ccc(Cl)c(Cl)c2)cc1NCc1cccs1` displayed a melting point of 185 to 188 °C.

`CNc1ccccc1C(=O)Cc1nnn[nH]1` showed a melting point of 199 to 201 °C.

Consider `O=C(O)c1ccc2c(c1)Sc1ccccc1O2`, for which the melting point is 253 °C.

With `CC(C)C(=O)N(C(=O)OC(C)(C)C)C(CC(N)C(=O)OCc1ccccc1)C(N)=O` (stereo not drawn), the melting point was in the range of 112 to 113 °C.

As for `Cc1cc(OC(F)(F)C(Cl)Cl)c([N+](=O)[O-])cc1S(=O)(=O)C=CC#N`, the melting point was found to be 109 °C.

The molecule `COC(=O)c1ccc(OCCNC(=O)C2Cc3ccccc3N2S(=O)(=O)c2ccc(-c3cc(C(F)(F)F)ccc3Cl)cc2)cc1C(F)(F)F` (stereo not drawn) displayed a melting point of 79 °C.

The molecule `O=C(c1ccccc1)c1ccc(OCCCCBr)cc1` had a melting point of 42 to 43 °C.

`Cc1ccccc1S(=O)(=O)NC(=O)c1ccc2c(ccn2Cc2cccc(NC(=O)OC3CCCC3)c2)c1` came in with a melting point of 188 to 190 °C.

`COc1ccc(-c2ccnc3c(C(=O)c4cccs4)cnn23)cc1NC(=O)CC(C)C` returned a melting point of 192 to 194 °C.

For `CC1(C)Oc2ccccc2C=C1/C=C/C=C/C=C/C(=O)O`, the melting point lay in the range of 180 to 182 °C.

The molecule `Cc1cc(-c2ccccc2)nc(SSc2nc(-c3ccccc3)cc(C)c2C#N)c1C#N` came in with a melting point of 200 to 201 °C.

`COCOc1cccc(F)c1C=NO` gave a melting point of 102 to 104 °C.

`C=CCS(=O)(=O)c1ccc(N2CC=C(c3ccc(Cl)cc3)N2)cc1`: the melting point came out at 210 °C.

For `CC(CCC(=O)C(C)(C)OO)C1CCC2C3CC=C4CC(OC5CCCCO5)CCC4(C)C3CCC12C` (stereo not drawn), the melting point fell in the range of 130 to 131 °C.

For `CCC(=O)N(N(CCCl)S(C)(=O)=O)S(C)(=O)=O`, the melting point was in the range of 97 to 98 °C.

`CC1(C)OC(=O)C2=C(CCCCCC2)O1`: the melting point was in the range of 73.5 to 74.5 °C.

As to `CCCC(=O)NS(=O)(=O)c1ccc(NC(=O)N2CCc3c(OC)ccc(N4CCN(C)CC4)c3C2)cc1`, the melting point was 185 to 190 °C.

On to `C=CCNC(=O)N1C[C@@H](Oc2cccc(C(F)(F)F)c2)[C@@H]1C` (relative stereo), for which the melting point is 55 to 57 °C.

Consider `COC(=O)Cn1c(Cl)c(Cl)c(Cl)c1Cl`, for which the melting point stood at 115 °C.

Consider `CC(C)c1ccccc1NC(=O)c1ccccc1C(c1ccc(O)cc1)c1ccc(O)cc1`, for which the melting point was in the range of 225 to 227 °C.

On to `CS(=O)(=O)ON=C(Cl)c1ccc(Cl)c(Cl)c1`, for which the melting point fell in the range of 73 to 75 °C.

Molecule `O=Cc1oc(-c2ccccc2)nc1CO` came in with a melting point of 134 to 135 °C.

Turning to `O=C1Nc2ccc(-c3cc(F)cc(Br)c3)cc2C(C2CC2)(C2CC2)O1`, the melting point lay within 228 to 229 °C.

The molecule `CCN1CC(C#CC2CC2)(C(F)(F)F)c2cc(Cl)ccc2NC1=O` (stereo not drawn) returned a melting point of 186 to 188 °C.

As for `S=C(NN=Cc1cccc(-c2ccc(Cl)cc2Cl)n1)NN1CCCC1`, the melting point is 155 to 156 °C.

In turn, `C[C@@H](Sc1ccc(O)cc1)C(=O)O` yielded a melting point of 138 to 139 °C.

`COC(=O)c1cc(C(=O)NN2CCCCC2)c2cc(Cc3ccc(F)cc3)cnc2c1O` had a melting point of 233 to 234 °C.

Molecule `COC(=O)C=C1NC(Cc2ccccc2)COC1=O` (stereo not drawn) showed a melting point of 82 to 83 °C.

As to `Cc1nc(-c2ccc3c(c2)OCO3)c2cc3c(cc2n1)OCO3`, the melting point was 207 to 210 °C.

`CC/C(=C(/c1ccc(O)cc1)c1ccc(OCCN(C)C)cc1)c1ccc(C(C)C)cc1` displayed a melting point of 95 to 96 °C.

In the case of `COc1cccc2c1c(N1CCOCC1)nc1c(-c3noc(C4CC4)n3)ncn12`, the melting point lay within 227 to 228 °C.

For the molecule `CC(=O)c1ccc2ccccc2c1OCCCC(=O)O`, the melting point amounted to 104 °C.

As for `COc1ccc(S(=O)(=O)Nc2cccnc2Nc2ccccc2)c(OC)c1`, the melting point fell in the range of 176 to 178 °C.

Molecule `CN(C)c1ccc(C2NCCc3sccc32)cc1` (stereo not drawn) had a melting point of 95 to 98 °C.

`CC(CCNc1cccc(-c2ccnc3c(C(=O)c4cccs4)cnn23)c1)CC(C)(C)C` (stereo not drawn) registered a melting point of 81 to 85 °C.

`CC(C)(C)OC(=O)c1ncn2c1[C@@H]1CCCN1C(=O)c1sccc1-2` registered a melting point of 226 to 227 °C.

In the case of `O=C(NCCSCc1cccc(F)c1)c1c(F)cccc1F`, the melting point lay in the range of 39 to 41 °C.

Regarding `Fc1ccccc1-c1ccc2nnn(Cc3ccc4ncccc4c3)c2n1`, the melting point lay in the range of 164 to 166 °C.

In the case of `NS(=O)(=O)c1ccc(C(=O)Nc2cn3cc(Cl)ccc3n2)cc1`, the melting point was more than 320 °C.

Molecule `Cc1ncn(Nc2ccc(F)cc2)c1-c1ccccc1` yielded a melting point of 155 °C.

On to `Cc1nc(-c2ccc3c(c2)OCC32C(=O)N(Cc3ccccn3)c3ccccc32)no1` (stereo not drawn), for which the melting point fell in the range of 147 to 148 °C.

As for `O=[N+]([O-])N=c1ccccn1Cc1ccccc1`, the melting point lay in the range of 125 to 126 °C.

With `Cc1nc(-c2ccc(OC3CCCCO3)cc2)cc(-c2c(Cl)ccc(Cl)c2Cl)c1C#N` (stereo not drawn), the melting point was 148 to 152 °C.

In turn, `CN(C)c1cc(C(=O)O)ncn1` had a melting point of 250 °C.

`NC(=O)COc1cccc(N)c1` showed a melting point of 107 to 111 °C.

Turning to `COC(=O)C(=O)c1nsc(NC(=O)OCc2ccccc2)n1`, the melting point is 144 to 147 °C.

`COc1cc(C(=O)c2nc(-c3ccc[nH]3)c3ccccn23)ccc1N` registered a melting point of 136 °C.

`COc1ccc(C(=O)C2CCCCC2C(=O)O)cc1OC` (stereo not drawn) gave a melting point of 171 to 175 °C.

In turn, `COC(=O)C1C=CCN2C(=O)C(C)(CCOC3CCCCO3)C(=O)N12` (stereo not drawn) returned a melting point of 128 °C.

For the molecule `COc1cc(N)c2nc(Cl)cc(C)c2c1Oc1cccc(C(F)(F)F)c1`, the melting point was in the range of 133 to 135 °C.

In turn, `O=C(CCl)Nc1ccc2c(c1NC(=O)c1ccc(F)cc1)C(=O)c1ccccc1C2=O` returned a melting point of 184 to 185 °C.

In turn, `C[C@]12CCC(=O)N[C@@H]1CCc1cc(-c3ccccc3Cl)ccc12` displayed a melting point of 189 to 191 °C.

For the molecule `CC(=O)OC1(C(=O)COC(=O)CC(C)C)CCC2C3CC(C)C4=CC(=O)C=CC4(C)C3C(O)CC21C` (stereo not drawn), the melting point lay in the range of 126 to 130 °C.

Regarding `Cn1c(COc2ccc(CC3SC(=O)NC3=O)cc2)nc2ccc(Oc3ccc(O)cc3)cc21` (stereo not drawn), the melting point lay within 126 to 131 °C.

For the molecule `CCC(=O)Nc1ccc(CN2C(=O)[C@H]3CCC[C@H]3N(C(=O)CN3C(=O)c4ccccc4C3=O)c3ccccc32)cc1` (relative stereo), the melting point was 286 °C.

The molecule `COc1ccc(C2=CC=CCC2(OC(C)C)C(=O)O)c(OC)c1` (stereo not drawn) returned a melting point of 121 to 122 °C.

In turn, `CCCc1noc(-c2ccccc2)c1-c1ccc(S(N)(=O)=O)cc1` showed a melting point of 167 °C.

For the molecule `CC(C)(C)NC(=O)c1cc(C(C)(C)C)c(O)c(C(C)(C)C)c1`, the melting point was in the range of 207 to 208 °C.

Turning to `Cc1oc2cc(C(CC(=O)O)CC(=O)O)ccc2c1C`, the melting point was in the range of 190 to 192 °C.

`C=CCOc1ccc(C(=O)OC2CCC(CCCCCCC(=O)C(=C)C)CC2)cc1` (stereo not drawn) registered a melting point of 50 °C.

The molecule `Cc1nn(-c2cc(OS(C)(=O)=O)c(Cl)cc2F)c(C)c1C` yielded a melting point of 123 to 125 °C.

As to `Nc1ccc(N2CCCC2)c(S(=O)(=O)O)c1`, the melting point is 255 to 256 °C.

The molecule `CCCCCCCCc1ccc(CCC(NC(C)=O)(C(=O)OCC)C(=O)OCC)s1` returned a melting point of 57 to 58 °C.

Turning to `Cn1c([N+](=O)[O-])cnc1C=Cc1cccc(C(N)=O)c1`, the melting point was in the range of 254 to 256 °C.

In turn, `CCCSc1c2c(=O)n(C)c(=O)n(CC(C)C)c2nn1Cc1cccc2ccccc12` returned a melting point of 105 °C.

The molecule `Cc1ccc2c(c1)C=Cc1cc(C(C)C)ccc1C2c1cn(Cc2ccc(C(=O)O)o2)c(=O)[nH]c1=O` (stereo not drawn) displayed a melting point of 150 to 160 °C.

The molecule `COc1ccc2c(c1)cc1n2CCC(COC(C)=O)C1` (stereo not drawn) returned a melting point of 98 to 100 °C.

Turning to `CCOC(=O)c1ncn2c1CN(C)C(=O)c1c-2cccc1[N+](=O)[O-]`, the melting point was in the range of 212 to 213 °C.

Molecule `Cc1nn(-c2ccc(C(=O)O)cc2)c(O)c1-c1c(C)nn(-c2ccc(C(=O)O)cc2)c1O` displayed a melting point of more than 280 °C.

For `CN(C)CC#Cc1ccc(C(CC2CCCC2)C(=O)Nc2nccs2)cc1` (stereo not drawn), the melting point lay within 164 to 167 °C.

Take `CCCCCCCCCCCOC(=O)NCCC`: the melting point lay within 45 to 45.5 °C.

Turning to `COc1cc(C(=O)CS(=O)(=O)c2ccccc2)ccc1Cc1cn(C(C)C(=O)N(C)C)c2ccc(C(=O)NCC3CCCC3)cc12` (stereo not drawn), the melting point lay in the range of 146 to 147 °C.

In the case of `CCCCCCCCC1N=C(N)NC(Nc2cc(C(C)(C)C)ccc2OC)=N1` (stereo not drawn), the melting point fell in the range of 129 to 132 °C.

Take `Cc1cc2nc(-c3ccc(F)cc3)cn2nc1Cl`: the melting point lay in the range of 196 to 198 °C.

On to `O=C(/C=C/[C@@H]1[C@H]2CC(=O)O[C@H]2C[C@H]1OC(=O)c1ccc(-c2ccccc2)cc1)COc1cccc(C(F)(F)F)c1`, for which the melting point fell in the range of 115 to 116 °C.

`COC[C@@H]1Cc2ccccc2N1C(=O)OC(C)(C)C` displayed a melting point of 173 to 175 °C.

In turn, `COc1ccc(C2=CC(=O)CC2)cc1OC1CCCC1` came in with a melting point of 136 to 137 °C.

For `COc1ccc(C(=O)Nc2ccc(C(C)=O)cc2)cc1`, the melting point lay in the range of 222 to 223 °C.

The molecule `COc1ccc(-c2cc3ncccc3c(Cl)n2)cc1` came in with a melting point of 126 to 127 °C.

`O=C(CCC(=O)Oc1ccc([N+](=O)[O-])cc1)Oc1ccc([N+](=O)[O-])cc1` had a melting point of 176 to 178 °C.

As to `CC(=O)C1CCCS1(=O)=O` (stereo not drawn), the melting point is 119 to 120 °C.

`CC(C)(O)c1cccc2ccccc12`: the melting point was in the range of 81 to 86 °C.

For orientation: melting point means the temperature, or range, at which the solid turns liquid.
